Measured values from paper PMC7177849, “Gut Microbial Catabolites of Tryptophan Are Ligands and Agonists of the Aryl Hydrocarbon Receptor: A Detailed Characterization” (International Journal of Molecular Sciences, 2020).
pIC50: −log10 of the molar value. Read-outs that look alike come from different tables or passages of the source.

Assays:
CYP1A1 mRNA = CYP1A1 mRNA (qRT-PCR) in primary human hepatocytes; type: cell-based; conditions: three donors, 24 h
Procedure: Figure 4 Effects of MICT on the induction of CYP1A1 mRNA in human hepatic and intestinal cells. Cultured cells were incubated for 24 h with the vehicle (DMSO; 0.1% v/v) and tested MICT in the presence or absence of TCDD (10 nM). RT-PCR determined the level of CYP1A1 mRNA, and the data were normalized per GAPDH mRNA level. […] (A,B) Experiments in three consecutive passages of human colon adenocarcinoma cell line LS180 in the absence (A) and the presence (B) of 10 nM TCDD. The bar graphs show the percentage of maximal induction attained by TCDD and are expressed as the mean ± SD. (C) Experiments in three consecutive passages of wild-type (AhR^+/^+) and AhR-knockout (AhR^−/^−) HT-29 cells. […] (D) Primary human hepatocytes from three different donors (LH79, Hep2201020, and Hep2201021).
Primary human hepatocyte cultures were from two sources: (i) long-term human hepatocytes in monolayer batch Hep2201020 (person) and Hep2201021 (person) were purchased from Biopredic International (Rennes, France); (ii) primary human hepatocytes from multiorgan donor LH79 were prepared at Palacky University Olomouc. Liver tissue was obtained from Faculty Hospital Olomouc, and the tissue acquisition protocol followed the requirements issued by the “Ethical Committee of the Faculty Hospital Olomouc, Czech Republic” and Transplantation law #285/2002 Coll.
Total RNA was isolated using TRI Reagent® (Sigma Aldrich, Prague, Czech Republic). cDNA was synthesized using M-MuLV reverse transcriptase (New England Biolabs, Ipswich, MA, USA). The reverse transcription was performed at 42 °C for 60 min using Random Primers 6 (New England Biolabs, Ipswich, MA, USA) and diluted in a 1:4 ratio by PCR-grade water. The quantitative reverse transcriptase-polymerase chain reaction (qRT-PCR) was performed on the Lightcycler 480 II using the LightCycler ® 480 Probes Master (Roche Diagnostic Corporation, Prague, Czech Republic). The levels of CYP1A1 and GAPDH mRNAs were determined using the Universal Probe Library probes (UPL; Roche Diagnostic Corporation, Prague, Czech Republic) in combination with specific primers, using a protocol described elsewhere. All measurements were performed in triplicates, and the gene expression was normalized to glyceraldehyde-3-phosphate dehydrogenase (GAPDH) as a house-keeping gene. The data were processed using the delta-delta Ct method and expressed as a fold induction over the negative control (DMSO) or as a percentage of the positive control (maximal induction by TCDD).

AhR = molecular target: T1, AhR (Homo sapiens, UniProt P35869); assay: Reporter gene assay in AZ-AHR cells, antagonist analyses against TCDD, BaP, FICZ; conditions: for effect on AhR activation by BaP / effect on AhR activation by TCDD / antagonistic effect against full agonists / effect on AhR activation by FICZ: AZ-AHR cells, 24 h; for effect on AhR activation by BaP: BaP 15.8 µM; for effect on AhR activation by TCDD: TCDD 13.5 nM; for antagonistic effect against full agonists: TCDD, BaP and FICZ at EC80; for effect on AhR activation by FICZ: FICZ 22.6 µM
T1 sequence (P35869 11-848): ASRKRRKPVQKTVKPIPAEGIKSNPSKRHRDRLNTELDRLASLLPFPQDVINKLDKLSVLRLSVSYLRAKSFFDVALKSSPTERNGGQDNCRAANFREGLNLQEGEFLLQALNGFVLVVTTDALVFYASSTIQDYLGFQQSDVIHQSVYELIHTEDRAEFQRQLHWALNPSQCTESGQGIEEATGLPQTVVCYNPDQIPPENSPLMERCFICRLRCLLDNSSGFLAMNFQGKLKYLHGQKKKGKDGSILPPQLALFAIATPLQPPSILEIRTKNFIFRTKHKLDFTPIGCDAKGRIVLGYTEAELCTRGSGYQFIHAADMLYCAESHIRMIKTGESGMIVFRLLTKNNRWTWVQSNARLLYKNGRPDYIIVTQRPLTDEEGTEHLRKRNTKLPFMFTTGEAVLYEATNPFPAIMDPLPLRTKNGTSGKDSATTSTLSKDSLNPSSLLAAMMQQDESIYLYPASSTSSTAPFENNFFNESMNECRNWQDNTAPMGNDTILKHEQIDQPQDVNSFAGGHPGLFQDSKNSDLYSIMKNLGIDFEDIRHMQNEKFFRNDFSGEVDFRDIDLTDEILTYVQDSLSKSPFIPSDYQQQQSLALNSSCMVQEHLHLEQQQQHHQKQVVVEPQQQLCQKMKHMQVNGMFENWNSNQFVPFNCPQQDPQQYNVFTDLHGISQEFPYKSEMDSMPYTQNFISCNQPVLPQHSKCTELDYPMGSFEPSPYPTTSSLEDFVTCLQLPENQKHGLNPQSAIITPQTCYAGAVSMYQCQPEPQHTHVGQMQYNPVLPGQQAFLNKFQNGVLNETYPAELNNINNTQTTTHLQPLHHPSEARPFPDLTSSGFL
Procedure: In the first series of experiments, we evaluated the agonistic and antagonistic effects of MICT on the AhR activation. […] The antagonistic effects of MICT were evaluated against typical full agonists of the AhR, comprising TCDD, BaP, and FICZ, which were applied at fixed concentrations corresponding to their EC80.
AZ-AHR cells were incubated for 24 h with vehicle (DMSO; 0.1% v/v) and increasing concentrations of MICT, in the absence (agonist analyses) or the presence (antagonist analyses) of TCDD (13.5 nM), BaP (15.8 µM) and FICZ (22.6 µM). Following the treatments, we lysed cells, and luciferase activity was measured. Experiments were performed at least in four consecutive cell passages. Incubations were performed in quadruplicates (technical replicates). In agonist analyses, the data from a representative experiment, expressed as a fold induction of luciferase activity over control cells, are shown. In antagonist analyses, the data are a percentage of maximal induction, and they are the mean ± SD.
AZ-AHR cells were incubated for 24 h with vehicle (DMSO; 0.1% v/v) and increasing concentrations of tested MICT in the presence or absence of TCDD (13.5 nM), FICZ (22.6 µM), or BaP (15.8 µM). Then, cells were lysed, and luciferase activity was measured using the Tecan Infinite M200 plate luminometer (Schoeller Instruments, Czech Republic). The experiments were performed in at least four consecutive cell passages, and the treatments were in quadruplicates (technical replicates). The values of half-maximal effective concentration (EC50) for each MICT, and half-maximal inhibitory concentration (IC50—where appropriate) were calculated.

Row | SMILES | induction of CYP1A1 mRNA (CYP1A1 mRNA) | effect on AhR activation by BaP (AhR) | effect on AhR activation by TCDD (AhR) | antagonistic effect against full agonists (AhR) | Antagonism (IC50) (AhR; Table 1 summary class) | pIC50 (AhR) | effect on AhR activation by FICZ (AhR) | Antagonism (IC50) (AhR)
1 | Cc1c[nH]c2ccccc12 [3MI, skatole] | induced | dose-dependently inhibited | dose-dependently inhibited | ligand-selective antagonism | ligand selective | – | – | –
2 | O=Cc1c[nH]c2ccccc12 [IA, indole-3-aldehyde] | – | – | – | dose-dependent antagonistic effect | yes–all ligands | 3.70 to 4.00 | – | –
3 | O=C(O)/C=C/c1c[nH]c2ccccc12 [IAC, indole-3-acrylate] | induced | – | – | no antagonistic effects | none | – | – | –
4 | NC(=O)Cc1c[nH]c2ccccc12 [IAD, indole-3-acetamide] | induced | potentiated | antagonized | – | – | – | potentiated | –
5 | OCCc1c[nH]c2ccccc12 [IET, indole-3-ethanol] | – | – | – | no antagonistic effects | – | – | – | –
6 | O=C(O)C(O)Cc1c[nH]c2ccccc12 (centres unmarked) [ILA, indole-3-lactate] | – | – | – | no antagonistic effects | – | – | – | none
7 | c1ccc2[nH]ccc2c1 [IND, indole] | induced | – | – | dose-dependent antagonistic effect | yes–all ligands | – | – | –
8 | O=C(O)C(=O)Cc1c[nH]c2ccccc12 [IPY, indole-3-pyruvate] | induced | potentiated | antagonized | – | ligand selective | – | potentiated | –
9 | NCCc1c[nH]c2ccccc12 [TA, tryptamine] | lack of induction | – | – | dose-dependent antagonistic effect | yes–all ligands | – | – | –
